# Test results from publication PMC11439681, “The identification of potent dual-target monopolar spindle 1 (MPS1) and histone deacetylase 8 (HDAC8) inhibitors through pharmacophore modeling, molecular docking, molecular dynamics simulations, and biological evaluation” (Frontiers in Pharmacology, 2024).
# Legend:
# [1] = tested on: panel of 68 kinases and other histone deacetylases; assay: In vitro selectivity assay, whole panel; type: biochemical; settings: read-out: IC50 on these kinases and other histone deacetylases
# Description: (§1) The inhibitory effects of compound MPH-5 on a panel of 68 kinases and other histone deacetylases were evaluated to assess the selectivity profile of MPH-5. This experiment was conducted by ICE Bioscience Inc. (Beijing, China).
# [2] = tested on: Huh-1; assay: MTT cytotoxicity assay, Huh-1; type: cell-based; settings: Homo sapiens, 72 h cell treatment
# Description: (§2) The cells (5 × 10^4 cells/well) were incubated overnight in 96-well plates. A series of solutions containing varying concentrations of inhibitors were added and incubated at 37°C for a period of 72 h. Subsequently, the culture medium was removed, followed by a subsequent incubation of the cells with a 5 mg/mL MTT stock solution for 4 h. After centrifugation, the precipitate was solubilized in DMSO and gently shaken for 15 min. Finally, the absorbance measurement at 570 nm was completed using a microplate reader. Data analysis was performed using GraphPad Prism 6.0 software.
# [3] = target: ERBB2 (Homo sapiens, UniProt P04626); assay: In vitro selectivity assay; type: biochemical; settings: selectivity panel
# Chain of ERBB2 (P04626 23-1255): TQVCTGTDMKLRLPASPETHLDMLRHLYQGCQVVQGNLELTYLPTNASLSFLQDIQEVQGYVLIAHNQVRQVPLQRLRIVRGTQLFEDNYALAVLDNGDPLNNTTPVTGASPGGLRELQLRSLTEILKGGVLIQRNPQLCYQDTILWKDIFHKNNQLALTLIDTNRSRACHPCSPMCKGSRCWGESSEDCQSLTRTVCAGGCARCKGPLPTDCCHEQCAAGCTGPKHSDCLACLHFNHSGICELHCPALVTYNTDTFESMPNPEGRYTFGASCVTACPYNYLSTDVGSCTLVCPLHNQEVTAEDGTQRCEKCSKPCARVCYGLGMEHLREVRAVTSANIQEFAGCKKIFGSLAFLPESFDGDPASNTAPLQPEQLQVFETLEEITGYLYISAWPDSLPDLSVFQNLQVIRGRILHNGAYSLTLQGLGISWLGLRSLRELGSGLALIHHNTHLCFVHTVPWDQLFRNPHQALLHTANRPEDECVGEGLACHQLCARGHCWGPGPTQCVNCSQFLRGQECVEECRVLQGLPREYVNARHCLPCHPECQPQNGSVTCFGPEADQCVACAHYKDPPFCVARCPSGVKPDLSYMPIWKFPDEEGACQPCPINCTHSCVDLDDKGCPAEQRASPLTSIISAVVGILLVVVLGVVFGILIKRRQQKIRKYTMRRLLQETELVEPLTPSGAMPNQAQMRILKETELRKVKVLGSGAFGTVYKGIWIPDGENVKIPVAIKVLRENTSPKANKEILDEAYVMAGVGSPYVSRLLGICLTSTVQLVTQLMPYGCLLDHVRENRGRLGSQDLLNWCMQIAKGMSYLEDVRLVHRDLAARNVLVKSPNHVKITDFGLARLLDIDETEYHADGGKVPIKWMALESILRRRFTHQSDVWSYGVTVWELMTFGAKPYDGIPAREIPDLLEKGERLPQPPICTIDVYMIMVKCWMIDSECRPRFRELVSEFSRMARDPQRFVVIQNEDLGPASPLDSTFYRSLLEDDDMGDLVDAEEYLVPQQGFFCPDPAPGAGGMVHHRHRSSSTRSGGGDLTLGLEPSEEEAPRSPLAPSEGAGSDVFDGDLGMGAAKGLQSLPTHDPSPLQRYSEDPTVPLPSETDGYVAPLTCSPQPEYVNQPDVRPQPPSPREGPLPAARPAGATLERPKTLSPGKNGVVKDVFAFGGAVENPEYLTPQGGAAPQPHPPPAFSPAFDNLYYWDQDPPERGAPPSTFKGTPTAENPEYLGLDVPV
# Description: as §1
# [4] = target: T1, EPHA6 (Homo sapiens, UniProt Q9UF33); assay: In vitro selectivity assay; type: biochemical; settings: selectivity panel
# T1 construct: ICE Bioscience Inc. (assay service)
# T1 sequence (Q9UF33 23-1036): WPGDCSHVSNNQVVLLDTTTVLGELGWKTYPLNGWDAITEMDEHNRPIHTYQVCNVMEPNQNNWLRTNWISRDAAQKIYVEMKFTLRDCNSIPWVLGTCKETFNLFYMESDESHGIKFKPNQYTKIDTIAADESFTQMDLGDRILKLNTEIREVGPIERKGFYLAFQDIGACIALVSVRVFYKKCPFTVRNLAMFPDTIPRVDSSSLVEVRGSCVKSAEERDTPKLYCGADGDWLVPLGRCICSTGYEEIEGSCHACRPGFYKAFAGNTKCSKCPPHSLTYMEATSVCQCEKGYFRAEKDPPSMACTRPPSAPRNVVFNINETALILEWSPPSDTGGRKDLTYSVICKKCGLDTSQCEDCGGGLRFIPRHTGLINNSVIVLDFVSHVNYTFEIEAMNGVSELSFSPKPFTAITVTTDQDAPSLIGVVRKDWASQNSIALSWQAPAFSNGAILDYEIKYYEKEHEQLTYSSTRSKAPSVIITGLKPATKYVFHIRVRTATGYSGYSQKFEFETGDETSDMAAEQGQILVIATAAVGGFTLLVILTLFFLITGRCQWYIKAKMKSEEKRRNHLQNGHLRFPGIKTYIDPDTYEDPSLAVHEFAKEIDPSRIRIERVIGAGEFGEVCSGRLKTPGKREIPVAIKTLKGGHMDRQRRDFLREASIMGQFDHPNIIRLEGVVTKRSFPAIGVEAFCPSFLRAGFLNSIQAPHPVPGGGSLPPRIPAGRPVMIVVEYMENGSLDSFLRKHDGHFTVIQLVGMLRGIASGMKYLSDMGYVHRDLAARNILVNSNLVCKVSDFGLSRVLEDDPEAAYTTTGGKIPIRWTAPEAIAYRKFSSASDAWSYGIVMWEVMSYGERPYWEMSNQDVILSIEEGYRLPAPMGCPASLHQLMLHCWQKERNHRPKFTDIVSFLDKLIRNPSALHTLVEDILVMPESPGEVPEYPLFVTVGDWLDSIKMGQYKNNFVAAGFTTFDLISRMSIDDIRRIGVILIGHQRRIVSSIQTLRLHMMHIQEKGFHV
# Description: as §1
# [5] = target: T2, BTK (Homo sapiens, UniProt Q06187); assay: In vitro selectivity assay; type: biochemical; settings: selectivity panel
# T2 construct: ICE Bioscience Inc. (assay service)
# T2 sequence (Q06187 whole entry): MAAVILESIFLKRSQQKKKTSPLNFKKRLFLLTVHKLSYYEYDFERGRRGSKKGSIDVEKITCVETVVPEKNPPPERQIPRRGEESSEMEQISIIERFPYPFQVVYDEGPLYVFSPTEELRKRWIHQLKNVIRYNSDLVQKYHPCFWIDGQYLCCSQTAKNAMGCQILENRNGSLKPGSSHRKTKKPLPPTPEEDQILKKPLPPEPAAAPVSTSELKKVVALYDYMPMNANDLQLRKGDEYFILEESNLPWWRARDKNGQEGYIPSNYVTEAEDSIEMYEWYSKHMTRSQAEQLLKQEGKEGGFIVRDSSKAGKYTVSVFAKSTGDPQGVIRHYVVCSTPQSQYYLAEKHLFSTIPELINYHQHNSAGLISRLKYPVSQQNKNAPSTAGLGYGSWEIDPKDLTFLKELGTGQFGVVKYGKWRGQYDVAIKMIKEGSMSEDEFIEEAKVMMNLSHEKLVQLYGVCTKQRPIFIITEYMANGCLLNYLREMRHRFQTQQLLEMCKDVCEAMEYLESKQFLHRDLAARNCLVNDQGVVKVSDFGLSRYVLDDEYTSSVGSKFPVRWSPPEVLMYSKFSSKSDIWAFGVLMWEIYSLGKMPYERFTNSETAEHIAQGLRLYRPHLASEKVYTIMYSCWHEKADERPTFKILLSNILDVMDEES
# Description: as §1
# [6] = tested on: BEAS-2B; assay: MTT cytotoxicity assay, BEAS-2B normal cells; type: cell-based; settings: Homo sapiens, 72 h cell treatment
# Description: as §2
# [7] = tested on: Ace-K62 of PKM2; assay: Gene expression analysis of Ace-K62 of PKM2 in HepG2 cells; type: cell-based, human; settings: 20 h, 0.25, 1 and 5 μM
# Description: (§3) Total RNA was extracted after the indicated treatments using the RNeasy Mini Kit (cat. no. 74106; QIAGEN, Hilden, Germany) following the manufacturer’s protocol. The concentration of RNA was measured on a plate reader, and then the extracted RNA was converted to cDNA using a High-Capacity RNA-to-cDNA kit from Applied Biosystems (Thermo Fisher Scientific, Inc.). Quantitative real-time polymerase chain reaction was performed in triplicate in a 96-well optical PCR plate using a QuantStudio Real-Time PCR System. Gene expression levels were evaluated using the comparative CT method. Graphical representations of the data were generated by GraphPad Prism 8.
# (§4) Previous studies indicate that MPS1 inhibitor exerts its antitumor effects by downregulating the levels of phosphorylated histone H3 ([Naud et al., 2013]), while HDAC8 inhibitor achieves its antitumor activity by upregulating lysine residue 62 acetylation (Ace-K62) levels of pyruvate kinase M2 (PKM2) ([Zhang et al., 2020]). The gene expression of P-histone H3 and Ace-K62 was detected in HepG2 cells with the treatment of MPH-5 for 20 h (at the concentration of 0, 0.25, 1, and 5 μM, respectively). […] As the concentration of MPH-5 increases, the inhibitory effect on P-histone H3 and the promotional effect on Ace-K62 become more pronounced.
# [8] = tested on: HepG2 xenograft tumor; assay: In vivo antitumor assay, HepG2 xenograft model; design: species or system BALB/c mice; settings: i.p., 1, 5 and 10 mg/kg
# Description: Male BALB/c mice (6 weeks old) were purchased from Changzhou Cavens Experimental Animal Limited Company (Changzhou, China). The xenograft model was established by subcutaneous injection of a suspension of HepG2 human liver cancer cells in PBS (200 μL, 1 × 10^7 cells) into the mice. The mice were randomized into four groups and received intraperitoneal injections of vehicle or MPH-5 at concentrations of 1, 5 and 10 mg/kg. Tumor volume was measured at 3-day intervals and calculated as follows: (c × c × d)/2 (c, the smallest diameter; d, the largest diameter). The experiments involving animals were approved by the Ethics Committee of China Pharmaceutical University.
# [9] = tested on: L02; assay: MTT cytotoxicity assay, L02 normal cells; type: cell-based; settings: Homo sapiens, 72 h cell treatment
# Description: as §2
# [10] = tested on: HepG2 liver cancer cells; assay: MTT cytotoxicity assay, HepG2; type: cell-based; settings: Homo sapiens, 72 h cell treatment
# Description: as §2
# [11] = tested on: P-histone H3; assay: Gene expression analysis of P-histone H3 in HepG2 cells; type: cell-based, human; settings: 20 h, 0.25, 1 and 5 μM
# Description: as §3, §4
# [12] = tested on: Li-7; assay: MTT cytotoxicity assay, Li-7; type: cell-based; settings: Homo sapiens, 72 h cell treatment
# Description: as §2
# [13] = target: T3, MPS1 (Homo sapiens, UniProt P33981); assay: In vitro MPS1 inhibitory assay; type: biochemical
# T3 construct: purchased Abcam
# T3 sequence (P33981 1-857): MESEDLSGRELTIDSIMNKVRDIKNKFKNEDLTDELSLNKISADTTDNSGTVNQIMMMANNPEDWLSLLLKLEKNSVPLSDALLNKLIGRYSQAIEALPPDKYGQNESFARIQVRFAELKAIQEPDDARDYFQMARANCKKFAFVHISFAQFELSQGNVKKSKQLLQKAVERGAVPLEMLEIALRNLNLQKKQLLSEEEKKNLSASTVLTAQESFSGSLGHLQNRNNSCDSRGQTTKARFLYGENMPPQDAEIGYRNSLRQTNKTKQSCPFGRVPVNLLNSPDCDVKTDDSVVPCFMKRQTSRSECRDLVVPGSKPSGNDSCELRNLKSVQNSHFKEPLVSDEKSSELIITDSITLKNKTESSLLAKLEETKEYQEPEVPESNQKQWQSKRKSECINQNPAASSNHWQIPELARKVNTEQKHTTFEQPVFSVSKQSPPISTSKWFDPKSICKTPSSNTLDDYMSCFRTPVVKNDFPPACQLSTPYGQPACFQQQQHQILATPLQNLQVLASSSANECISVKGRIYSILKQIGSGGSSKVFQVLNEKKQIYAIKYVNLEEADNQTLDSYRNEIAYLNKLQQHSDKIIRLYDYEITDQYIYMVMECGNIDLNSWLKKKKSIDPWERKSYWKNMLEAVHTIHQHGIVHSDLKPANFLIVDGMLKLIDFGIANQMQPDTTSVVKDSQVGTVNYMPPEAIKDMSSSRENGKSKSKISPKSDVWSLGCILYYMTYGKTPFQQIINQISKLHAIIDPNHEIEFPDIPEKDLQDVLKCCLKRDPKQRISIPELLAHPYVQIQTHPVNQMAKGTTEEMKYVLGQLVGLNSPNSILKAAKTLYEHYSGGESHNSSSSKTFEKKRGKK
# Description: The methodology is as previously described ([Naud et al., 2013]). In brief, the experiment was conducted using 384-well black low-volume plates, which were loaded with MPS1 (concentration range of 3–12.5 nM), 5 μM fluorescence-labelled peptide (sequence: 5FAM-[…]-CONH2), 10 μM ATP, 1% (v/v) DMSO or the test compound (concentrations in 1% (v/v) DMSO ranged from 0.25 to 100 μM), and assay buffer. […]. The plate was read on a Caliper EZ reader II (PerkinElmer Life Sciences, Waltham, MA, United States). […]
smiles,measurement,setting,value
Cn1cc(-c2cc3cnc(Nc4ccc(-c5cncn5/C=C/C(=O)NO)cc4Cl)cc3n2C(=O)OC(C)(C)C)cn1 [MPH-5],IC50,[1],> 10000 nM
same,IC50,[2],0.32 µM
same,IC50,[3],> 10 µM
same,IC50,[4],> 10 µM
same,IC50,[5],> 10 µM
same,IC50,[6],> 10 µM
same,K62 acetylation levels (Ace-K62 of PKM2),[7],dose-dependent regulation
same,body weight change,[8]; HepG2 xenograft mice,did not induce any significant body weight change
same,tumor growth (tumor volume),"[8]; HepG2 xenograft, vs vehicle",significantly and dose-dependently inhibited the tumor growth
same,IC50,[9],> 10 µM
same,IC50,[10],0.19 µM
same,phosphorylated histone H3 levels,[11],dose-dependent regulation
same,IC50,[12],0.64 µM
same,IC50,[13],4.52 ± 0.21 nM
same,MPS1 IC50 of MPH-5 relative to AZ3146,[13]; vs AZ3146,about 8 fold
